Target: T1, KRAS G12C 1-169, his-tagged protein, GDP-loaded (Homo sapiens, UniProt P01116, G12C)
T1 construct: KRAS G12C 1-169, his-tagged protein, GDP-loaded
Assay: Biochemical assay: covalent binding to KRAS G12C analyzed by mass spectrometry; note: test concentration or dose not given here
Conditions: compounds 1-47, measured at 24 h

T1 sequence (P01116 1-169 isoform P01116-2 G12C): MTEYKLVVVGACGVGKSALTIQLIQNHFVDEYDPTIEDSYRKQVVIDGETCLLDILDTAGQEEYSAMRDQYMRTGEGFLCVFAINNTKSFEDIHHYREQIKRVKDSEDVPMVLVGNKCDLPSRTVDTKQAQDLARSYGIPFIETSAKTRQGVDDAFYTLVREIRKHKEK

SMILES	Binding %
C=CC(=O)N1CCN(c2ncnc3cc(Cl)c(-c4ccc(Cl)cc4)cc23)CC1 [Compound I-4, 1-(4-(7-chloro-6-(4-chlorophenyl)quinazolin-4-yl)piperazin-1-yl)prop-2-en-1-one]	++++ (++++indicates binding activity greater than 75%)
C=CC(=O)N1CCN(c2ncnc3cc(Cl)c(-c4cccc(Cl)c4)cc23)CC1 [Compound I-5, 1-(4-(7-chloro-6-(3-chlorophenyl)quinazolin-4-yl)piperazin-1-yl)prop-2-en-1-one]	+++ (+++indicates binding activity greater than 50% and up to 75%)
C=CC(=O)N1CCN(c2ncnc3cc(Cl)c(-c4ccc(Cl)cc4Cl)cc23)CC1 [Compound I-6, 1-(4-(7-chloro-6-(2,4-dichlorophenyl)quinazolin-4-yl)piperazin-1-yl)prop-2-en-1-one]	+++ (+++indicates binding activity greater than 50% and up to 75%)
C=CC(=O)N1CCN(c2ncnc3cc(Cl)c(-c4ccc(Cl)c(Cl)c4)cc23)CC1 [Compound I-7, 1-(4-(7-chloro-6-(3,4-dichlorophenyl)quinazolin-4-yl)piperazin-1-yl)prop-2-en-1-one]	++++ (++++indicates binding activity greater than 75%)
C=CC(=O)N1CCN(c2ncnc3cc(Cl)c(-c4ccccc4C#N)cc23)CC1 [Compound I-8, 2-(4-(4-acryloylpiperazin-1-yl)-7-chloroquinoazlin-6-yl)benzonitrile]	++ (++indicates binding activity greater than 25% and up to 50%)
C=CC(=O)N1CCN(c2ncnc3cc(Cl)c(-c4cc(Cl)ccc4Cl)cc23)CC1 [Compound I-9, 1-(4-(7-chloro-6-(2,5-dichlorophenyl)quinazolin-4-yl)piperazain-1-yl)prop-2-en-1-one]	+++ (+++indicates binding activity greater than 50% and up to 75%)
C=CC(=O)N1CCN(c2ncnc3cc(Cl)c(-c4cc(Cl)ccc4O)cc23)CC1 [Compound I-10, 1-(4-(7-chloro-6-(5-chloro-2-hydroxyphenyl)quinazolin-4-yl)piperazin-1-yl)prop-2-en-1-one]	++ (++indicates binding activity greater than 25% and up to 50%)
C=CC(=O)N1CCN(c2ncnc3cc(Cl)c(-c4ccc(Cl)cc4O)cc23)CC1 [Compound I-11, 1-(4-(7-chloro-6-(4-chloro-2-hydroxyphenyl)quinoazlin-4-yl)piperazin-1-yl)prop-2-en-1-one]	++++ (++++indicates binding activity greater than 75%)
C=CC(=O)N1CCN(c2ncnc3cc(Cl)c(-c4ccc(O)cc4)cc23)CC1 [Compound I-12, 1-(4-(7-chloro-6-(4-hydroxyphenyl)quinazolin-4-yl)piperazin-1-yl)prop-2-en-1-one]	+ (+indicates binding activity from 5% to 25%)
C=CC(=O)N1CCN(c2ncnc3cc(Cl)c(-c4ccc(Cl)cc4OC)cc23)CC1 [Compound I-13, 1-(4-(7-chloro-6-(4-chloro-2-methoxyphenyl)quinoazlin-4-yl)piperazin-1-yl)prop-2-en-1-one]	++ (++indicates binding activity greater than 25% and up to 50%)
C=CC(=O)N1CCN(c2ncnc3cc(Cl)c(-c4cccc(O)c4)cc23)CC1 [Compound I-14, 1-(4-(7-chloro-6-(3-hydroxyphenyl)quinazolin-4-yl)piperazin-1-yl)prop-2-en-1-one]	++ (++indicates binding activity greater than 25% and up to 50%)
C=CC(=O)N1CCN(c2ncnc3cc(Cl)c(-c4ccccc4O)cc23)CC1 [Compound I-15, 1-(4-(7-chloro-6-(2-hydroxyphenyl)quinoazlin-4-yl)piperazin-1-yl)prop-2-en-1-one]	+++ (+++indicates binding activity greater than 50% and up to 75%)
C=CC(=O)N1CCN(c2ncnc3cc(Cl)c(-c4ccc(C#N)cc4)cc23)CC1 [Compound I-16, 4-(4-(4-acryloylpiperazin-1-yl)-7-chloroquinazolin-6-yl)benzonitrile]	++ (++indicates binding activity greater than 25% and up to 50%)
C=CC(=O)N1CCN(c2ncnc3cc(Cl)c(-c4ccncc4)cc23)CC1 [Compound I-17, 1-(4-(7-chloto-6-(pyridin-4-yl)quinazolin-4-yl)piperazin-1-yl)prop-2-en-1-one]	+ (+indicates binding activity from 5% to 25%)
C=CC(=O)N1CCN(c2ncnc3cc(Cl)c(-c4ccccc4)cc23)CC1 [Compound I-18, 1-(4-(7-chloro-6-phenylquinazolin-4-yl)piperazin-1-yl)prop-2-en-1-one]	++ (++indicates binding activity greater than 25% and up to 50%)
C=CC(=O)N1CCN(c2ncnc3cc(Cl)c(-c4cccc(C#N)c4)cc23)CC1 [Compound I-19, 3-(4-(4-acryloylpiperazin-1-yl)-7-chloroquinazolin-6-yl)benzonitrile]	++ (++indicates binding activity greater than 25% and up to 50%)
C=CC(=O)N1CCN(c2ncnc3cc(Cl)c(-c4cccnc4)cc23)CC1 [Compound I-20, 1-(4-(7-chloro-6-(pyridin-3-yl)quinazolin-4-yl)piperazin-1-yl)prop-2-en-1-one]	+ (+indicates binding activity from 5% to 25%)

SMILES	Binding %
C=CC(=O)N1CCN(c2ncnc3cc(Cl)c(-c4cccs4)cc23)CC1 [Compound I-21, 1-(4-(7-chloro-6-(thiophen-2-yl)quinazolin-4-yl)piperazin-1-yl)prop-2-en-1-one]	+++ (+++indicates binding activity greater than 50% and up to 75%)
C=CC(=O)N1CCN(c2ncnc3cc(Cl)c(-c4cc(F)ccc4Cl)cc23)CC1 [Compound I-23, 1-(4-(7-chloro-6-(2-chloro-5-fluorophenyl)quinazolin-4-yl)piperazin-1-yl)prop-2-en-1-one]	++ (++indicates binding activity greater than 25% and up to 50%)
C=CC(=O)N1CCN(c2nccc3cc(Cl)c(-c4ccccc4Cl)cc23)CC1 [Compound I-24, 1-(4-(6-chloro-7-(2-chlorophenyl)isoquinolin-1-yl)piperazin-1-yl)prop-2-en-1-one]	+ (+indicates binding activity from 5% to 25%)
CN(C)C/C=C/C(=O)N1CCN(c2ncnc3cc(Cl)c(-c4ccccc4Cl)cc23)CC1 [Compound I-25, (E)-1-(4-(7-chloro-6-(2-chlorophenyl)quinazolin-4-yl)piperazin-1-yl)-4-(dimethylamino)but-2-en-1-one]	++ (++indicates binding activity greater than 25% and up to 50%)
C=CC(=O)N1CCN(c2ncnc3cc(Cl)c(-c4ccc(C)s4)cc23)CC1 [Compound I-26, 1-(4-(7-chloro-6-(5-methylthiophen-2-yl)quinazolin-4-yl)piperazin-1-yl)prop-2-en-1-one]	++ (++indicates binding activity greater than 25% and up to 50%)
C=CC(=O)N1CCN(c2ccnc3cc(Cl)c(-c4ccccc4Cl)cc23)CC1 [Compound I-27, 1-(4-(7-chloro-6-(2-chlorophenyl)quinolin-4-yl)piperazin-1-yl)prop-2-en-1-one]	++ (++indicates binding activity greater than 25% and up to 50%)
C=CC(=O)N1CCN(c2ncnc3[nH]cc(-c4ccccc4Cl)c23)CC1 [Compound I-28, 1-(4-(5-(2-chlorophenyl)-7H-pyrrolo[2,3-d]pyrimidin-4-yl)piperazin-1-yl)prop-2-en-1-one]	+ (+indicates binding activity from 5% to 25%)
C=CC(=O)NC1CN(c2ncnc3cc(Cl)c(-c4ccccc4Cl)cc23)C1 [Compound I-29, N-(1-(7-chloro-6-(2-chlorophenyl)quinazolin-4-yl)azetidin-3-yl)acrylamide]	+ (+indicates binding activity from 5% to 25%)
C=CC(=O)N1CC(Nc2ncnc3cc(Cl)c(-c4ccccc4Cl)cc23)C1 [Compound I-30, 1-(3-(7-chloro-6-(2-chlorophenyl)quinazolin-4-ylamino)azetidin-1-yl)prop-2-en-1-one]	+ (+indicates binding activity from 5% to 25%)
C=CC(=O)N1CCC(Nc2n[nH]c3cc(Cl)c(-c4ccccc4Cl)cc23)CC1 [Compound I-31, 1-(4-(6-chloro-5-(2-chlorophenyl)-1H-indazol-3-ylamino)piperidin-1-yl)prop-2-en-1-one]	+ (+indicates binding activity from 5% to 25%)
C=CC(=O)N1CCN(c2ncnc3cc(Cl)c(N4CCOCC4)cc23)CC1 [Compound I-32, 1-(4-(7-chloro-6-morpholinoquinazolin-4-yl)piperazin-1-yl)prop-2-en-1-one]	+ (+indicates binding activity from 5% to 25%)
C=CC(=O)N1CCN(c2ncnc3cc(F)c(-c4ccccc4Cl)cc23)CC1 [Compound I-33, 1-(4-(6-(2-chlorophenyl)-7-fluoroquinazolin-4-yl)piperazin-1-yl)prop-2-en-1-one]	++ (++indicates binding activity greater than 25% and up to 50%)
C=CC(=O)N1CCN(c2ncnc3cc(Cl)c(-c4ccc(Cl)s4)cc23)CC1 [Compound I-34, 1-(4-(7-chloro-6-(5-chlorothiophen-2-yl)quinazolin-4-yl)piperazin-1-yl)prop-2-en-1-one]	+++ (+++indicates binding activity greater than 50% and up to 75%)
C=CC(=O)N1CCN(c2ncc3cccc(-c4ccccc4Cl)c3n2)CC1 [Compound I-35, 1-(4-(8-(2-chlorophenyl)quinazolin-2-yl)piperazin-1-yl)prop-2-en-1-one]	+ (+indicates binding activity from 5% to 25%)
C=CC(=O)N1CCC(c2ncnc3cc(Cl)c(-c4ccccc4Cl)cc23)CC1 [Compound I-36, 1-(4-(7-chloro-6-(2-chlorophenyl)quinazolin-4-yl)piperidin-1-yl)prop-2-en-1-one]	+ (+indicates binding activity from 5% to 25%)
C=CC(=O)N1CCN(c2nccc3cc(Cl)c(-c4ccc(Cl)cc4)cc23)CC1 [Compound I-37, 1-(4-(6-chloro-7-(4-chlorophenyl)isoquinolin-1-yl)piperazin-1-yl)prop-2-en-1-one]	++ (++indicates binding activity greater than 25% and up to 50%)
C=CC(=O)N1CCN(c2ncnc3cc(C4CC4)c(-c4ccc(C5CC5)cc4)cc23)CC1 [Compound I-41, 1-(4-(7-cyclopropyl-6-(4-cyclopropylphenyl)quinazolin-4-yl)piperazin-1-yl)prop-2-en-1-one]	+ (+indicates binding activity from 5% to 25%)

Reference: patent publication US10111874B2, “Combination therapies for treatment of cancer” (Araxes Pharma LLC, priority 2014, dated 2018)
